{"source": "paper PMC10281575", "about": "“PfCRT mutations conferring piperaquine resistance in falciparum malaria shape the kinetics of quinoline drug binding and transport” (PLOS Pathogens, 2023)", "key": {"PfCRT^Dd2_H97Y": {"molecular_target": "T1, PfCRT^Dd2_H97Y (Plasmodium falciparum, UniProt Q8IBZ9, A220S/H97Y/I356T/K76T/M74I/N326S/N75E/Q271E/R371I)", "T1 construct": "expressed in transfected cells; host or cells: Xenopus laevis oocytes injected with in vitro transcribed RNA (pSP64T)", "T1 sequence (Q8IBZ9 1-424 M74I/N75E/K76T/H97Y/A220S/Q271E/N326S/I356T/R371I)": "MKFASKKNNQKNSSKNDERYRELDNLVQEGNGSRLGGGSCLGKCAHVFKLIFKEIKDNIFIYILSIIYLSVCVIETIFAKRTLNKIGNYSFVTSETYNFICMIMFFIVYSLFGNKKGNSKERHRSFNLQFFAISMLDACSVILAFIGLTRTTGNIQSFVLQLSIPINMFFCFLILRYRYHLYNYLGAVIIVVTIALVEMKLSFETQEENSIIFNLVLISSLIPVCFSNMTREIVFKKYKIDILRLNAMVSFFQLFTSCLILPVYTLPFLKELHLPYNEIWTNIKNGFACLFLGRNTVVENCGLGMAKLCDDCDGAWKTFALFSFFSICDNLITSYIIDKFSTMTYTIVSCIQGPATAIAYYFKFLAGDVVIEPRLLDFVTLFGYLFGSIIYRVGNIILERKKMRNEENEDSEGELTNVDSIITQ", "assay": "Radiolabeled drug uptake in X. laevis oocytes expressing PfCRT^Dd2_H97Y", "format": "cell-based", "conditions": "for Vmax, maximal velocity of drug transport / Km: Michaelis-Menten fit, 10-500 μM drug, pH 6; for Km: read-out: KM, Michaelis constant", "source_text": "(§1) A codon-optimized coding sequence of the Dd2 isoform of PfCRT (PfCRT^Dd2) was subcloned into the pSP64T expression vector [21]. To generate the necessary mutations to introduce the amino acid substitutions H97Y, F145I, M343L or G353V into the pfcrt sequence, the overlap extension method was used. A region from the 5’-untranslated Xenopus β-globin sequence to the respective 3’ region, containing the full length pfcrt coding sequence, was amplified using the following primer pairs: for the H97Y mutation, numbers 1/4 and 2/3; for the F145I mutation, numbers 1/6 and 2/5; for the M343L mutation, numbers 1/8 and 2/7; and for the G353V mutation, numbers 1/10 and 2/9 (for primers, see S2 Table). Both PCR products were used as template for amplification of the final product using primers number 1/2. The resulting fragment was cloned into the pSP64T expression vector, and the presence of the desired mutation was confirmed by sequencing.\n(§2) Adult female X. laevis frogs (purchased from NASCO) were anesthetized by submersion in a solution of 0.3% (w/v) 3-amino benzoate methanesulfonate for 15 min. Sections of the ovary were surgically removed and placed in Ca^2+-free ND96 buffer supplemented with 0.1% collagenase D (w/v; Roche), 0.5% BSA (w/v) and 9 mM Na2HPO4 at 18°C for 14–16 h while gently shaking. The oocytes were then washed several times with ND96 buffer (5 mM HEPES, pH 7.5, 96 mM NaCl, 2 mM KCl, 1.8 mM CaCl2, 1 mM MgCl2), supplemented with […] gentamycin. Healthy-looking stage V-VI oocytes were manually selected and randomly grouped for injection. A codon-optimized coding sequence of PfCRT was subcloned into the pSP64T expression vector and subsequently linearized using the restriction endonuclease BamHI or SalI (New England Biolabs GmbH). RNA for injection was transcribed in vitro using the mMESSAGE mMACHINE SP6 Transcription kit (Ambion), diluted with nuclease-free water to a final concentration of 0.6 μg/μL and stored at -80°C. RNA was injected using precision-bore glass capillary tubes (3.5-inch glass capillaries; Drummond Scientific Co.), which were pulled on a vertical puller (P-87 Flaming/Brown micropipette puller, Sutter Instrument Co.) and graduated. The micropipettes were connected to a microinjector (Nanoject II Auto-Nanoliter Injector, Drummond Scientific Co.). Injection was conducted under stereomicroscopic control. 50 nL of nuclease-free water alone (control oocytes) or 50 nL of nuclease-free water containing 30 ng of RNA was injected per oocyte. Injected oocytes were kept for 72 h at 18°C in ND96 buffer with two daily buffer changes before being used for further experiments.\n(§3) Drug transport assays were performed as previously described. Briefly, measurements of radiolabeled drug uptake were made over 1 h, unless otherwise specified. […] Where specified, one or more unlabeled drugs were also present at the indicated concentrations. […] The uptake assays were terminated by removing the oocytes from the reaction medium and washing them three times with 2 mL of ice-cold ND96 buffer. Each oocyte was transferred to a separate scintillation vial and lysed by the addition of 200 μL of a 5% SDS solution. The radioactivity in the sample was measured using a liquid scintillation analyser Tri-Carb 4910 TR (PerkinElmer). Water-injected oocytes were analyzed in parallel as a negative control. The buffer from each condition was measured in duplicate in parallel to each experiment to transform counts per minute into pmol of drug. Drug uptake attributable to PfCRT was determined by subtracting the background uptake from water-injected oocytes from that of PfCRT-expressing oocytes. In all cases, at least three independent experiments were performed on oocytes from different frogs, and for each condition in an experiment, measurements were made from 10 oocytes per treatment."}, "PfCRT^Dd2_G353V": {"molecular_target": "T2, PfCRT^Dd2_G353V (Plasmodium falciparum, UniProt Q8IBZ9, A220S/G353V/I356T/K76T/M74I/N326S/N75E/Q271E/R371I)", "T2 construct": "expressed in transfected cells; host or cells: Xenopus laevis oocytes injected with in vitro transcribed RNA (pSP64T)", "T2 sequence (Q8IBZ9 1-424 M74I/N75E/K76T/A220S/Q271E/N326S/G353V/I356T/R371I)": "T1 sequence (Q8IBZ9 1-424 M74I/N75E/K76T/H97Y/A220S/Q271E/N326S/I356T/R371I) with Y97H, G353V", "assay": "Radiolabeled drug uptake in X. laevis oocytes expressing PfCRT^Dd2_G353V", "format": "cell-based", "source_text": "as §1, §2, §3"}}, "note": "Numbering of substitutions follows the chain as printed. Values joined by “and” are separate entries in the source; they are usually repeats but may differ in a detail not shown here. Identical values can stand only once."}
{"smiles": "Clc1ccc2c(N3CCN(CCCN4CCN(c5ccnc6cc(Cl)ccc56)CC4)CC3)ccnc2c1", "note": "[PPQ, piperaquine]", "values": [{"measurement": "PfCRTDd2_H97Y-mediated PPQ uptake at 10 µM PPQ", "setting": "PfCRT^Dd2_H97Y; 10 µM PPQ, single replicates", "result": "12.86 pmol oocyte-1 h-1 and 5.01 pmol oocyte-1 h-1 and 5.38 pmol oocyte-1 h-1"}, {"measurement": "PfCRTDd2_H97Y-mediated PPQ uptake at 50 µM PPQ", "setting": "PfCRT^Dd2_H97Y; 50 µM PPQ, single replicates", "result": "31.25 pmol oocyte-1 h-1 and 73.07 pmol oocyte-1 h-1 and 57.01 pmol oocyte-1 h-1 and 61.85 pmol oocyte-1 h-1 and 37.57 pmol oocyte-1 h-1 and 17.78 pmol oocyte-1 h-1"}, {"measurement": "PfCRTDd2_H97Y-mediated PPQ uptake at 100 µM PPQ", "setting": "PfCRT^Dd2_H97Y; 100 µM PPQ, single replicates", "result": "97.03 pmol oocyte-1 h-1 and 61.02 pmol oocyte-1 h-1 and 41.93 pmol oocyte-1 h-1 and 45.11 pmol oocyte-1 h-1"}, {"measurement": "PfCRTDd2_H97Y-mediated PPQ uptake at 300 µM PPQ", "setting": "PfCRT^Dd2_H97Y; 300 µM PPQ, single replicates", "result": "103.79 pmol oocyte-1 h-1 and 76.95 pmol oocyte-1 h-1 and 76.45 pmol oocyte-1 h-1 and 130.46 pmol oocyte-1 h-1"}, {"measurement": "PfCRTDd2_H97Y-mediated PPQ uptake at 500 µM PPQ", "setting": "PfCRT^Dd2_H97Y; 500 µM PPQ, single replicates", "result": "133.65 pmol oocyte-1 h-1 and 96.27 pmol oocyte-1 h-1 and 74.35 pmol oocyte-1 h-1 and 131.71 pmol oocyte-1 h-1"}, {"measurement": "Vmax, maximal velocity of drug transport", "setting": "PfCRT^Dd2_H97Y", "result": "131 ± 6 pmol oocyte^-1 h^-1 and 183.94 pmol oocyte^-1 h^-1"}, {"measurement": "Km", "setting": "PfCRT^Dd2_H97Y", "result": "106 ± 14", "unit": "µM"}, {"measurement": "PfCRTDd2_G353V-mediated PPQ uptake at 10 µM PPQ", "setting": "PfCRT^Dd2_G353V; 10 µM PPQ, single replicates", "result": "5.31 pmol oocyte-1 h-1 and 5.17 pmol oocyte-1 h-1 and 3.93 pmol oocyte-1 h-1"}, {"measurement": "PfCRTDd2_G353V-mediated PPQ uptake at 50 µM PPQ", "setting": "PfCRT^Dd2_G353V; 50 µM PPQ, single replicates", "result": "29.38 pmol oocyte-1 h-1 and 45.38 pmol oocyte-1 h-1 and 21.36 pmol oocyte-1 h-1 and 40.00 pmol oocyte-1 h-1 and 56.34 pmol oocyte-1 h-1 and 56.46 pmol oocyte-1 h-1 and 95.52 pmol oocyte-1 h-1 and 62.83 pmol oocyte-1 h-1"}, {"measurement": "PfCRTDd2_G353V-mediated PPQ uptake at 100 µM PPQ", "setting": "PfCRT^Dd2_G353V; 100 µM PPQ, single replicates", "result": "105.67 pmol oocyte-1 h-1 and 52.72 pmol oocyte-1 h-1 and 63.14 pmol oocyte-1 h-1"}, {"measurement": "PfCRTDd2_G353V-mediated PPQ uptake at 300 µM PPQ", "setting": "PfCRT^Dd2_G353V; 300 µM PPQ, single replicates", "result": "116.72 pmol oocyte-1 h-1 and 65.87 pmol oocyte-1 h-1 and 109.27 pmol oocyte-1 h-1"}, {"measurement": "PfCRTDd2_G353V-mediated PPQ uptake at 500 µM PPQ", "setting": "PfCRT^Dd2_G353V; 500 µM PPQ, single replicates", "result": "126.72 pmol oocyte-1 h-1 and 99.20 pmol oocyte-1 h-1 and 126.01 pmol oocyte-1 h-1"}, {"measurement": "Km", "setting": "PfCRT^Dd2_G353V; Michaelis-Menten fit, 10-500 μM drug, pH 6, read-out: KM, Michaelis constant", "result": "90 ± 20", "unit": "µM"}]}
{"smiles": "CCN(CC)CCCC(C)Nc1ccnc2cc(Cl)ccc12", "note": "(centres unmarked) [CQ, chloroquine]", "values": [{"measurement": "PfCRTDd2_H97Y-mediated CQ uptake at 10 µM CQ", "setting": "PfCRT^Dd2_H97Y; 10 µM CQ, single replicates", "result": "0.94 pmol oocyte-1 h-1 and 1.60 pmol oocyte-1 h-1 and 1.36 pmol oocyte-1 h-1"}, {"measurement": "PfCRTDd2_H97Y-mediated CQ uptake at 50 µM CQ", "setting": "PfCRT^Dd2_H97Y; 50 µM CQ, single replicates", "result": "8.24 pmol oocyte-1 h-1 and 3.56 pmol oocyte-1 h-1 and 5.41 pmol oocyte-1 h-1 and 4.92 pmol oocyte-1 h-1 and 5.15 pmol oocyte-1 h-1"}, {"measurement": "PfCRTDd2_H97Y-mediated CQ uptake at 100 µM CQ", "setting": "PfCRT^Dd2_H97Y; 100 µM CQ, single replicates", "result": "9.39 pmol oocyte-1 h-1 and 7.90 pmol oocyte-1 h-1 and 6.68 pmol oocyte-1 h-1"}, {"measurement": "PfCRTDd2_H97Y-mediated CQ uptake at 300 µM CQ", "setting": "PfCRT^Dd2_H97Y; 300 µM CQ, single replicates", "result": "13.78 pmol oocyte-1 h-1 and 16.15 pmol oocyte-1 h-1 and 14.38 pmol oocyte-1 h-1"}, {"measurement": "PfCRTDd2_H97Y-mediated CQ uptake at 500 µM CQ", "setting": "PfCRT^Dd2_H97Y; 500 µM CQ, single replicates", "result": "17.49 pmol oocyte-1 h-1 and 19.24 pmol oocyte-1 h-1 and 15.35 pmol oocyte-1 h-1"}, {"measurement": "Vmax, maximal velocity of drug transport", "setting": "PfCRT^Dd2_H97Y", "result": "24 ± 1", "unit": "pmol oocyte^-1 h^-1"}, {"measurement": "Km", "setting": "PfCRT^Dd2_H97Y", "result": "184 ± 16", "unit": "µM"}, {"measurement": "PfCRTDd2_G353V-mediated CQ uptake at 10 µM CQ", "setting": "PfCRT^Dd2_G353V; 10 µM CQ, single replicates", "result": "0.74 pmol oocyte-1 h-1 and 0.50 pmol oocyte-1 h-1 and 0.07 pmol oocyte-1 h-1"}, {"measurement": "PfCRTDd2_G353V-mediated CQ uptake at 50 µM CQ", "setting": "PfCRT^Dd2_G353V; 50 µM CQ, single replicates", "result": "4.74 pmol oocyte-1 h-1 and 5.01 pmol oocyte-1 h-1 and 2.88 pmol oocyte-1 h-1 and 3.92 pmol oocyte-1 h-1 and 4.76 pmol oocyte-1 h-1"}, {"measurement": "PfCRTDd2_G353V-mediated CQ uptake at 100 µM CQ", "setting": "PfCRT^Dd2_G353V; 100 µM CQ, single replicates", "result": "7.26 pmol oocyte-1 h-1 and 6.49 pmol oocyte-1 h-1 and 5.26 pmol oocyte-1 h-1"}, {"measurement": "PfCRTDd2_G353V-mediated CQ uptake at 300 µM CQ", "setting": "PfCRT^Dd2_G353V; 300 µM CQ, single replicates", "result": "16.30 pmol oocyte-1 h-1 and 8.52 pmol oocyte-1 h-1 and 8.09 pmol oocyte-1 h-1"}, {"measurement": "PfCRTDd2_G353V-mediated CQ uptake at 500 µM CQ", "setting": "PfCRT^Dd2_G353V; 500 µM CQ, single replicates", "result": "17.15 pmol oocyte-1 h-1 and 14.95 pmol oocyte-1 h-1 and 14.10 pmol oocyte-1 h-1"}, {"measurement": "Vmax, maximal velocity of drug transport", "setting": "PfCRT^Dd2_G353V; Michaelis-Menten fit, 10-500 μM drug, pH 6", "result": "23 ± 3", "unit": "pmol oocyte^-1 h^-1"}]}
